Results on 21 compounds are retold here after BindingDB's records for doi:10.1016/S0960-894X(02)00564-4 (Universita Degli Studi Di Firenze, 2002).

In this experiment the target is T1, Collagenase ColG (Hathewaya histolytica, UniProt Q9X721).
T1 sequence (Q9X721 whole entry): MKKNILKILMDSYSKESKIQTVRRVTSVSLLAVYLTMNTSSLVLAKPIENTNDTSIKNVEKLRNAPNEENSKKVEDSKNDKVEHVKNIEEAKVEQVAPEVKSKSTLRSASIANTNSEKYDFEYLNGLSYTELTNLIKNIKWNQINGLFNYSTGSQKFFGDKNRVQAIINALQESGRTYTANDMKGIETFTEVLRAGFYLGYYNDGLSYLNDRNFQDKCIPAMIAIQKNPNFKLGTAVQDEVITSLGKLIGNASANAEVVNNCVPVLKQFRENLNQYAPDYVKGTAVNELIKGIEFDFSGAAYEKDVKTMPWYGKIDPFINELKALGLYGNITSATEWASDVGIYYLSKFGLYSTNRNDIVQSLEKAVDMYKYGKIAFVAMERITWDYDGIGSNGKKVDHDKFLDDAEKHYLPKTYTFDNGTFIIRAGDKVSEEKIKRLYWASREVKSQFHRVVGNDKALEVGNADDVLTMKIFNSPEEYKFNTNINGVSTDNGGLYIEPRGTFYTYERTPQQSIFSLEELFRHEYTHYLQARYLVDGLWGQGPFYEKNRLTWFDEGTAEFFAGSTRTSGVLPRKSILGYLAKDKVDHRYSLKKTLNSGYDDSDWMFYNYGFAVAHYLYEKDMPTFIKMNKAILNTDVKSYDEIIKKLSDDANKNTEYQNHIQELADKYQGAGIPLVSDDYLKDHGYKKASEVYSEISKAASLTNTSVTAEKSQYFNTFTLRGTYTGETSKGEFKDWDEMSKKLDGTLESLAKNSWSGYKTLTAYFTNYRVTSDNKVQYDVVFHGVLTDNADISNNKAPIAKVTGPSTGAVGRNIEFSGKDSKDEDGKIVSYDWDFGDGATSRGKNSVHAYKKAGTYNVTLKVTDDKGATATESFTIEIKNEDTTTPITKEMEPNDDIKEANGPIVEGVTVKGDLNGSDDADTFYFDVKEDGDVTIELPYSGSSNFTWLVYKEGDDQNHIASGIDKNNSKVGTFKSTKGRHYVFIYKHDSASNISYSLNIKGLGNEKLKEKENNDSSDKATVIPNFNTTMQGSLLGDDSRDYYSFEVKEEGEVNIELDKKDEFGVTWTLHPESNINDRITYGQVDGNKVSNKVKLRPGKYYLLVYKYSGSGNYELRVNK
Briefly: MMP Enzyme Inhibition Assay. As for the experimental part: Initial rates for the hydrolysis of the thioester substrate were used for assessing the catalytic activity and inhibition of the MMPs by the spectrophotometric method. The change of absorbance at 405 nm was monitored. The inhibition constant Ki was then determined by using Easson-Stedman plots and a linear regression program.

`CC(NC(=O)C(Cc1ccccc1)NS(=O)(=O)c1cccc2c(N(C)C)cccc12)C(=O)Nc1nnc(S)s1` (stereo unspecified) [2-{[5-(dimethylamino)naphthalene-1-]sulfonamido}-3-phenyl-N-{1-[(5-sulfanyl-1,3,4-thiadiazol-2-yl)carbamoyl]ethyl}propanamide] had a Ki of 43 µM.
For `COc1ccc(S(=O)(=O)NC(Cc2ccccc2)C(=O)NC(C)C(=O)Nc2nnc(S)s2)cc1` (stereo unspecified) [2-[(4-methoxybenzene)sulfonamido]-3-phenyl-N-{1-[(5-sulfanyl-1,3,4-thiadiazol-2-yl)carbamoyl]ethyl}propanamide], the Ki came out at 14 µM.
Then `CC(NC(=O)C(Cc1ccccc1)NS(=O)(=O)c1cc(Cl)ccc1Cl)C(=O)Nc1nnc(S)s1` (stereo unspecified) [2-[(2,5-dichlorobenzene)sulfonamido]-3-phenyl-N-{1-[(5-sulfanyl-1,3,4-thiadiazol-2-yl)carbamoyl]ethyl}propanamide], with 15 µM.
`CC(NC(=O)C(Cc1ccccc1)NS(=O)(=O)c1ccc2ccccc2c1)C(=O)Nc1nnc(S)s1` (stereo unspecified) [2-(naphthalene-2-sulfonamido)-3-phenyl-N-{1-[(5-sulfanyl-1,3,4-thiadiazol-2-yl)carbamoyl]ethyl}propanamide] registered a Ki of 40 µM.
As for `CC(NC(=O)C(Cc1ccccc1)NC(=O)NS(=O)(=O)c1ccccc1)C(=O)Nc1nnc(S)s1` (stereo unspecified) [2-{[(benzenesulfonyl)carbamoyl]amino}-3-phenyl-N-{1-[(5-sulfanyl-1,3,4-thiadiazol-2-yl)carbamoyl]ethyl}propanamide], the figure is 3 µM; as for `CC(NC(=O)C(Cc1ccccc1)NS(=O)(=O)c1ccc(F)cc1)C(=O)Nc1nnc(S)s1` (stereo unspecified) [2-[(4-fluorobenzene)sulfonamido]-3-phenyl-N-{1-[(5-sulfanyl-1,3,4-thiadiazol-2-yl)carbamoyl]ethyl}propanamide], 21 µM.
Compound `CC(NC(=O)C(Cc1ccccc1)NS(=O)(=O)CC12CCC(CC1=O)C2(C)C)C(=O)Nc1nnc(S)s1` (stereo unspecified) [2-[({7,7-dimethyl-2-oxobicyclo[2.2.1]heptan-1-yl}methane)sulfonamido]-3-phenyl-N-{1-[(5-sulfanyl-1,3,4-thiadiazol-2-yl)carbamoyl]ethyl}propanamide] had a Ki of 25 µM.
`CC(NC(=O)C(Cc1ccccc1)NC(=O)NS(=O)(=O)c1ccc(F)cc1)C(=O)Nc1nnc(S)s1` (stereo unspecified) [2-({[(4-fluorobenzene)sulfonyl]carbamoyl}amino)-3-phenyl-N-{1-[(5-sulfanyl-1,3,4-thiadiazol-2-yl)carbamoyl]ethyl}propanamide] displayed a Ki of 0.2 µM.
Then `CC(NC(=O)C(Cc1ccccc1)NS(=O)(=O)c1ccc(Br)cc1)C(=O)Nc1nnc(S)s1` (stereo unspecified) [2-[(4-bromobenzene)sulfonamido]-3-phenyl-N-{1-[(5-sulfanyl-1,3,4-thiadiazol-2-yl)carbamoyl]ethyl}propanamide], with 16 µM; and `Cc1ccc(S(=O)(=O)NC(Cc2ccccc2)C(=O)NC(C)C(=O)Nc2nnc(S)s2)cc1` (stereo unspecified) [2-[(4-methylbenzene)sulfonamido]-3-phenyl-N-{1-[(5-sulfanyl-1,3,4-thiadiazol-2-yl)carbamoyl]ethyl}propanamide], with 15 µM.
Then `CC(NC(=O)C(Cc1ccccc1)NS(=O)(=O)c1ccc([N+](=O)[O-])cc1)C(=O)Nc1nnc(S)s1` (stereo unspecified) [2-[(4-nitrobenzene)sulfonamido]-3-phenyl-N-{1-[(5-sulfanyl-1,3,4-thiadiazol-2-yl)carbamoyl]ethyl}propanamide], with 13 µM; and `CC(NC(=O)C(Cc1ccccc1)NS(=O)(=O)c1cccc2cccnc12)C(=O)Nc1nnc(S)s1` (stereo unspecified) [3-phenyl-2-(quinoline-8-sulfonamido)-N-{1-[(5-sulfanyl-1,3,4-thiadiazol-2-yl)carbamoyl]ethyl}propanamide], with 36 µM.
Compound `Cc1ccc(S(=O)(=O)NC(=O)NC(Cc2ccccc2)C(=O)NC(C)C(=O)Nc2nnc(S)s2)cc1` (stereo unspecified) [2-({[(4-methylbenzene)sulfonyl]carbamoyl}amino)-3-phenyl-N-{1-[(5-sulfanyl-1,3,4-thiadiazol-2-yl)carbamoyl]ethyl}propanamide] showed a Ki of 4 µM.
Compound `Cc1cc(C)c(S(=O)(=O)NC(Cc2ccccc2)C(=O)NC(C)C(=O)Nc2nnc(S)s2)c(C)c1` (stereo unspecified) [3-phenyl-N-{1-[(5-sulfanyl-1,3,4-thiadiazol-2-yl)carbamoyl]ethyl}-2-[(2,4,6-trimethylbenzene)sulfonamido]propanamide] returned a Ki of 17 µM.
Take `CC(NC(=O)C(Cc1ccccc1)NS(=O)(=O)c1cccs1)C(=O)Nc1nnc(S)s1` (stereo unspecified) [3-phenyl-N-{1-[(5-sulfanyl-1,3,4-thiadiazol-2-yl)carbamoyl]ethyl}-2-(thiophene-2-sulfonamido)propanamide]: the affinity corresponds to a Ki of 9 µM.
As for `CC(NC(=O)C(Cc1ccccc1)NC(=O)NS(=O)(=O)c1ccc(Cl)cc1)C(=O)Nc1nnc(S)s1` (stereo unspecified) [2-({[(4-chlorobenzene)sulfonyl]carbamoyl}amino)-3-phenyl-N-{1-[(5-sulfanyl-1,3,4-thiadiazol-2-yl)carbamoyl]ethyl}propanamide], the figure is 0.3 µM.
`CC(NC(=O)C(Cc1ccccc1)NS(=O)(=O)c1ccc(I)cc1)C(=O)Nc1nnc(S)s1` (stereo unspecified) [2-[(4-iodobenzene)sulfonamido]-3-phenyl-N-{1-[(5-sulfanyl-1,3,4-thiadiazol-2-yl)carbamoyl]ethyl}propanamide] returned a Ki of 14 µM.
On to `CC(=O)Nc1ccc(S(=O)(=O)NC(Cc2ccccc2)C(=O)NC(C)C(=O)Nc2nnc(S)s2)cc1` (stereo unspecified) [2-[(4-acetamidobenzene)sulfonamido]-3-phenyl-N-{1-[(5-sulfanyl-1,3,4-thiadiazol-2-yl)carbamoyl]ethyl}propanamide], for which affinity was put at a Ki of 16 µM.
As for `CC(NC(=O)C(Cc1ccccc1)NS(=O)(=O)Cc1ccccc1)C(=O)Nc1nnc(S)s1` (stereo unspecified) [3-phenyl-2-(phenylmethane)sulfonamido-N-{1-[(5-sulfanyl-1,3,4-thiadiazol-2-yl)carbamoyl]ethyl}propanamide], the figure is 19 µM.
`CC(NC(=O)C(Cc1ccccc1)NS(=O)(=O)c1cccc(C(F)(F)F)c1)C(=O)Nc1nnc(S)s1` (stereo unspecified) [3-phenyl-N-{1-[(5-sulfanyl-1,3,4-thiadiazol-2-yl)carbamoyl]ethyl}-2-{[3-(trifluoromethyl)benzene]sulfonamido}propanamide]: the affinity, expressed as Ki, was 9 µM.
`CC(NC(=O)C(Cc1ccccc1)NS(=O)(=O)c1c(F)c(F)c(F)c(F)c1F)C(=O)Nc1nnc(S)s1` (stereo unspecified) [2-[(2,3,4,5,6-pentafluorobenzene)sulfonamido]-3-phenyl-N-{1-[(5-sulfanyl-1,3,4-thiadiazol-2-yl)carbamoyl]ethyl}propanamide] showed a Ki of 5 µM.
